Source: ChEMBL document CHEMBL1127033, “Synthesis and anti-HIV-1 activity of a series of imidazo[1,5-b]pyridazines” (J Med Chem, 1993)
“And” between values parts separate entries of the source, which are not always exact repeats. Identical values can stand only once.

Tests used:
[1] = test system: MT4; test: Inhibition of growth in uninfected MT-4 cells in MTM assay; type: functional, cell-based; details: Homo sapiens
[2] = molecular target: T1, Human immunodeficiency virus type 1 reverse transcriptase (Human immunodeficiency virus 1, UniProt Q72547); test: In vitro inhibitory concentration against reverse transcriptase of HIV-1 (RT)
[3] = test system: C8166; test: Inhibition of syncytia formation in infected C8166-cells; type: functional, cell-based; details: Homo sapiens
[4] = test system: C8166; test: Inhibition of p24 antigen formation in infected C8166-cells; type: functional, cell-based; details: Homo sapiens
[5] = test system: Human immunodeficiency virus 1; test: (§1) Inhibition of HIV-1 (strain A17)-infected MT-4 cells; type: functional, organism-based; details: Human immunodeficiency virus 1, MT4
[6] = molecular target: T1, Human immunodeficiency virus type 1 reverse transcriptase; test: Inhibition of reverse transcriptase of HIV-1 (strain RF)-infected MT-4 cells in RPMI 1640 growth medium in MTM assay; Toxic; type: cell-based; details: mt4
[7] = molecular target: T1, Human immunodeficiency virus type 1 reverse transcriptase; test: Inhibition of reverse transcriptase activity of HIV-1 in the presence of [alpha35 S] TTP as cosubstrate.
[8] = test system: MT4; test: as §1; type: functional, cell-based; details: Homo sapiens

SMILES	IC50 [1] [nM]	IC50 [2]	EC50 [3] [nM]	EC50 [4] [nM]	further results
COc1ccc2c(C)nc(CCCCCCC(=O)c3ccccc3)n2n1	250000	640 nM	–	–	–
CSc1ccc2c(C)nc(CCCCCCC(=O)c3ccccc3)n2n1	27000	80 nM	–	–	–
Cc1nc(CCCCCCC(O)c2ccccc2)n2nc(-n3ccnc3)ccc12 (stereo unspecified)	26000	230 nM	6	4	–
Cc1nc(CCCCCCC(=O)c2ccccc2)n2nc(-n3ccnc3C)ccc12	260000	2500 nM	–	–	–
CCc1nc(CCCCCCC(=O)c2ccccc2)n2nc(Cl)ccc12	25000	2000 nM	–	–	–
Cc1nc(CCCCCOC(=O)C2CCCC2)n2nc(Cl)ccc12	250000	22000 nM	–	–	–
Cc1nc(CCCCCC(=O)c2ccccc2)n2nc(Cl)ccc12	250000	4800 nM	–	–	–
Cc1nc(CCCCCCC(=O)c2ccccc2)n2nc(Cl)ccc12	25000	840 nM	80	80	–
CNc1ccc2c(C)nc(CCCCCCC(=O)c3ccccc3)n2n1	25000	3400 nM	–	–	–
Cc1nc(CCCCCCC(O)c2ccccc2)n2nc(Cl)ccc12 (stereo unspecified)	250000	380 nM	< 80	< 80	–
O=C(CCCCCCc1ncc2ccc(Cl)nn12)c1ccccc1	25000	340 nM	210	340	–
Cc1nc(CCCCCCC(=O)c2ccccc2)n2nc(-n3cccc3)ccc12	26000	80 nM	7	5	–
Cc1nc(CCCCCCC(=O)c2ccccc2)n2nc(-n3cncn3)ccc12	26000	100 nM	–	–	–
CC(=O)OCCCCCc1nc(C)c2ccc(Cl)nn12	–	110000 nM	–	–	–
Cc1nc(CCCCCCC(=O)c2ccccc2)n2nc(-n3cnnc3)ccc12	260000	2600 nM	–	–	–
Cc1nc(CCCCCCCC(=O)c2ccccc2)n2nc(Cl)ccc12	250000	3000 nM	–	–	–
Cc1cn(-c2ccc3c(C)nc(CCCCCCC(=O)c4ccccc4)n3n2)cn1	260000	550 nM	65	160	–
Cc1nc(CCCCCCC(=O)c2ccccc2)n2nc(N3CCCCC3)ccc12	–	6700 nM	–	–	–

SMILES	IC50 [1] [nM]	IC50 [2]	EC50 [3] [nM]	EC50 [4] [nM]	further results
Cc1nc(CCCCCC(=O)Cc2ccccc2)n2nc(Cl)ccc12	28000	3900 nM	–	–	–
Cc1nc(CCCCCO)n2nc(Cl)ccc12	–	> 100000 nM	–	–	–
Cc1nc(CCCCCCC(=O)c2ccccc2)n2nc(-n3ccnc3)ccc12	26000	0.6 nM	0.6	5	EC50 [5]: 1900 nM
Cc1nc(CCCCCCC(=O)c2ccccc2)n2nc(-n3cccn3)ccc12	26000	3400 nM	–	–	–
Cc1nc(CCCCCOC(=O)c2ccccc2)n2nc(Cl)ccc12	> 25000	1340 nM and 1300 nM	1600	1100	–
Cc1nc(CCCCCCC(=O)c2ccccc2)n2nc(-n3nccn3)ccc12	260000	1300 nM	–	–	–
Cc1nc(CCCCCCC(=O)c2ccccc2)n2nc(N)ccc12	30000	3000 nM	–	–	–
Cc1nc(CCCCCCC(=O)c2ccccc2)n2ncccc12	280000	560 nM	–	–	–
Cc1nc(CCCCCCCc2ccccc2)n2nc(Cl)ccc12	250000	14000 nM	–	–	–
Cc1nc(CCCCCCC(=O)c2ccccc2)n2nc(N3CCCC3)ccc12	< 30	50 nM	–	–	EC50 [6]: Toxic
Cc1nc(CCCCCCC(=O)c2ccccc2)n2nc(N(C)C)ccc12	27000	270 nM	–	–	–
CC(C)c1nc(CCCCCCC(=O)c2ccccc2)n2nc(Cl)ccc12	–	110000 nM	–	–	–
Cc1nc(CCCCCCC(=O)c2ccccc2)n2nc(-n3cncc3C)ccc12	26000	100 nM	10	30	–
Cc1nc(CCCCCCC(=O)c2ccccc2)n2nc(-n3ccnn3)ccc12	26000	640 nM	–	–	–
Cc1nc(CCCCCOCc2ccccc2)n2nc(Cl)ccc12	290000	2300 nM	580	380	–
CCc1cc(NCc2nc3c(Cl)ccc(Cl)c3o2)c(O)nc1C [L-697661]	–	–	7	7	IC50 [7]: 850 nM; EC50 [8]: > 10000 nM
Cc1cn([C@H]2C[C@H](N=[N+]=[N-])[C@@H](CO)O2)c(=O)[nH]c1=O [ZIDOVUDINE]	–	–	30	20	EC50 [5]: 10 nM
